From patent publication US20040052728A1, “Diagnostic imaging” (priority 1998, published 2004)
Where two headings read alike, the source gives them in different places.

How the values were obtained:
[1] = system: myocardium; assay: Open chest ultrasound imaging with partial coronary occlusion (snare on left anterior descending coronary artery); format: in vivo, dog; conditions: for change in contrast effect in the myocardium, except in areas supplied by the stenotic artery: one minute after start of infusion
Description: The procedure of Example 1 was repeated except that an occluding snare was placed around the major branch of the left anterior descending coronary artery. An ultrasound transit time flow meter was applied to the same artery and the snare was adjusted to give a stable reduction in blood flow to about 75% of the normal value. Contrast agent and adenosine injections were then administered as in Example 1.
(§1) In order to analyse ultrasound images obtained according to the procedure of Example 1, the images were first converted from video images into grey level digital images (640×480 pixels) using a frame grabber. A fixed central region (399×399 pixels) covering the image sector was selected for further processing. The thus-obtained images were decimated by averaging 3×3 pixels into new images (133×133 pixels) and were then median filtered using a sliding region (5×5 pixels).
(§2) A single image obtained just before onset of adenosine-induced vasodilatation was selected as a geometrical template to which all other images were automatically adjusted to maximum pixel correlation by an affine transformation (6 degrees of freedom). Only pixels within a region of interest in the template image encompassing the left ventricle and its myocardium were used for calculating maximum pairwise pixel grey level correlation.
(§3) 6-10 baseline images from before the appearance of adenosine effects were averaged to give a representative baseline image, and a similar number of images at peak adenosine effect were likewise averaged. The two thus-obtained averaged images were then subtracted and the difference was colour coded. […] The colour coding was selected to represent the range −4 dB (blue colour) to +4 dB (red colour).
Images were acquired as described in Example 3 and processed according to the method of Example 4.
The procedure of Example 3 is repeated except that the bolus injection of adenosine is replaced with a pumpcontrolled infusion of dobutamine at a rate of 15 μg/kg/min.
The procedure of Example 3 is repeated except that the bolus injection of adenosine is replaced with a pumpcontrolled infusion of arbutamine at a rate of 0.4 μg/kg/min.

[2] = system: left circumflex perfusion beds; conditions: contrast agent perfluoropropane-enhanced sonicated dextrose albumin i.v., cited from earlier work
[3] = system: myocardium; assay: Open chest ultrasound imaging of the heart with contrast agent, then adenosine bolus; format: in vivo, dog
Description: A midline sternotomy was performed on an anaesthetised 20 kg mongrel dog and the anterior pericardium was removed. A short axis view of the heart was imaged with an ATL HDI-3000 scanner, using a P5-3 transducer in harmonic mode; a 30 mm silicone rubber spacer having low ultrasound attenuation was placed between the transducer and the anterior surface of the heart. ECG gating was used so as to acquire one image in each end-systole.
as §1, §2, §3
Images were acquired as described in Example 1 and processed according to the method of Example 4. The normal myocardium was depicted with a homogeneous colour indicating a signal increase of some 3-4 dB.

[4] = system: myocardium; assay: Closed chest ultrasound imaging of the heart with contrast agent, then adenosine bolus; format: in vivo, dog; conditions: Preparation 1 contrast agent
Source text: The procedure of Example 1 was repeated with a closed chest dog, using a parasternal transducer position. The resulting ultrasound images were less homogeneous as regards signal intensities than the images obtained in Example 1, as a result of acoustic effects of the intact chest wall.
as §1, §2
6-10 baseline images from before the appearance of adenosine effects were averaged to give a representative baseline image, and a similar number of images at peak adenosine effect were likewise averaged. […]

[5] = system: myocardium; assay: Imaging in man: pulse inversion imaging of the heart with contrast agent and adenosine infusion; format: in vivo, human; conditions: adenosine i.v. infusion 140 μg/kg/min, apical 2-chamber view, Preparation 1 contrast agent
Description: A patient with an angiographically verified 80% left anterior descending arterial stenosis was given an intravenous injection of 1 ml of a perfluorobutane microbubble suspension prepared as in Preparation 1. The heart was imaged with an ATL HDI-5000 scanner and a P4-2 transducer, using ECG-gated (every second end-systole) pulse inversion imaging; the mechanical index was 0.6. The heart was imaged from an apical 2-chamber view. […] Intravenous infusion of adenosine at a rate of 140 μg/kg/min was then started, and a sequence of 30 images, of which 10 were before the onset of adenosine effects in the heart, were stored in digital format. The images were processed as in Example 4, but without the initial video grabbing steps.

[6] = in vivo; cited from earlier work
[7] = adenosine 150 μg/kg i.v. bolus after Preparation 1 contrast agent
[8] = blood flow reduced to about 75% of normal, adenosine 150 μg/kg i.v. bolus, Preparation 1 contrast agent
[9] = following injection of adenosine, processed difference image

Oc1ccc(CCCCNC[C@H](O)c2ccc(O)c(O)c2)cc1 [arbutamine]
change in contrast effect in the myocardium, except in areas supplied by the stenotic artery ([1]; arbutamine infusion 0.4 μg/kg/min, Preparation 1 contrast agent): increase in contrast effect

Nc1ncnc2c1ncn2[C@@H]1O[C@H](CO)[C@@H](O)[C@H]1O [Adenosine, adenosine]
ratio of peak myocardial videointensities, adenosine stress compared to resting ([2]; stenoses with diameter in excess of 70%): 0.8-1.4 | ratio of peak myocardial videointensities, adenosine stress compared to resting ([2]; stenoses with diameter not exceeding 50%): 1.8-2.1 | change in echo intensity from the myocardium [3, 7]: distinct general increase in echo intensity | duration of the increase in echo intensity [3, 7]: ~15 s | time from adenosine injection to increase in echo intensity from the myocardium [3, 7]: 7 s | signal increase in normal myocardium (processed difference image) ([3]; open chest, peak adenosine effect versus baseline, Preparation 1 contrast agent): 3-4 dB | change in echo intensities after injection of adenosine ([4]; parasternal transducer position): general increase in echo intensities comparable to that observed in Example 1 | signal increase in normal myocardium (processed difference image) ([4]; peak adenosine effect versus baseline): 3-4 dB | change in contrast effect in all other areas of the myocardium [1, 8]: increase | change in contrast effect in tissue areas affected by the occlusion [1, 8]: slight decrease in contrast effect | decrease in signal intensity in myocardial tissue affected by the simulated coronary stenosis [1, 9]: 1-3 dB | increase in signal intensity in normal myocardium [1, 9]: 2-3 dB | decrease in signal intensity in myocardial regions supplied by the stenotic artery [5]: 1-2 dB | increase in signal intensity in normal regions of the myocardium [5]: 2-3 dB | blood pool half-life [6]: only a few seconds

CC(CCc1ccc(O)cc1)NCCc1ccc(O)c(O)c1 (centres unmarked) [dobutamine]
change in contrast effect in the myocardium, except in areas supplied by the stenotic artery ([1]; dobutamine infusion 15 μg/kg/min, Preparation 1 contrast agent): increase in contrast effect
